In PubChem BioAssay (NCI):
Values joined by “and” are separate entries in the source; they are usually repeats but may differ in a detail not shown here. Equal values may be shown once.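 Grown in 96-well plates, cells were treated for 48 hours with each compound at five concentrations. Insufficient inhibition: endpoint recorded as highest concentration tested. GI50 is the concentration that inhibits growth by half. TGI denotes the concentration required for complete inhibition of growth.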

Columns and labels:
Assay in all cases: NCI anticancer screen, dose series, 48 h
MOLT-4 leukemia = system: MOLT-4 leukemia
SW-620 colon = system: SW-620 colon
MDA-MB-231 breast = system: MDA-MB-231 breast
SK-OV-3 ovarian = system: SK-OV-3 ovarian
CCRF-CEM leukemia = system: CCRF-CEM leukemia
CAKI-1 renal = system: CAKI-1 renal
NCI-H460 lung = system: NCI-H460 lung
RXF 393 renal = system: RXF 393 renal
SR leukemia = system: SR leukemia
DU-145 prostate = system: DU-145 prostate

SMILES | GI50 (MOLT-4 leukemia) | TGI (MOLT-4 leukemia) | GI50 (SW-620 colon) | TGI (SW-620 colon) | GI50 (MDA-MB-231 breast) | TGI (MDA-MB-231 breast) | GI50 (SK-OV-3 ovarian) | TGI (SK-OV-3 ovarian) | GI50 (CCRF-CEM leukemia) | TGI (CCRF-CEM leukemia) | GI50 (CAKI-1 renal) | TGI (CAKI-1 renal) | GI50 (NCI-H460 lung) | TGI (NCI-H460 lung) | GI50 (RXF 393 renal) | TGI (RXF 393 renal) | GI50 (SR leukemia) | TGI (SR leukemia) | GI50 (DU-145 prostate) | TGI (DU-145 prostate)
OCc1ccc(-c2ccc(-c3ccc(CO)o3)[se]2)o1 | 41.2 µM | > 100 µM | > 100 µM | > 100 µM | > 83.7 µM | > 100 µM | > 100 µM | > 100 µM | 35.5 µM | > 100 µM | > 100 µM | > 100 µM | > 72.7 µM | > 100 µM | > 100 µM | > 100 µM | > 69.2 µM | > 100 µM | > 94 µM | > 100 µM
CCOC(=O)c1sc(-c2ccc(OS(=O)(=O)c3ccc(Br)s3)c(C=O)c2)nc1C | 2.73 µM | 8.3 µM | 3.28 µM | 12.8 µM | 2.75 µM | 10.1 µM | 36.4 µM | 97.1 µM | 2.36 µM | 9.16 µM | 2.86 µM | 14.5 µM | 22.7 µM | 58.6 µM | 2.81 µM | 13.5 µM | 3.14 µM | > 100 µM | 6.81 µM | 24.8 µM
[Cl][Hg][Cl] | 4.08 µM | > 37.7 µM | 5.4 µM | 40.2 µM | 17.1 µM | 31.7 µM | 20.2 µM | 34.5 µM | 1.83 µM | 7.38 µM | 13.7 µM | 18.1 µM | 15.7 µM | 35.5 µM | 18.2 µM | 32.6 µM | 1.72 µM |  | 20.1 µM | 34.8 µM
CCCNNC(=O)/C=C/c1ccc(CNCCc2c(C)[nH]c3ccccc23)cc1 | 0.0152 µM | 4.09 µM | 0.0177 µM | 0.237 µM | 0.0708 µM | 3.74 µM | 0.0357 µM | 0.482 µM | 0.0138 µM | 6.43 µM | 0.0369 µM | 0.123 µM | 0.0726 µM | 3.57 µM | 0.011 µM | 0.0479 µM | 0.0191 µM | 4.26 µM | 0.0322 µM | 3.35 µM
CCOc1ccc2nc(SCc3nc4n(n3)S(=O)(=O)c3ccccc3N4C)sc2c1 | > 100 µM | > 100 µM | > 100 µM | > 100 µM | 73.1 µM | > 100 µM | > 100 µM | > 100 µM | 64.2 µM | > 100 µM | > 100 µM | > 100 µM | > 100 µM | > 100 µM | 30.1 µM | 97.3 µM | 51.5 µM | > 100 µM | > 100 µM | > 100 µM
O=C1c2ccccc2-c2c1c1c(=O)[nH]c3ccccc3c1n2Cc1ccccc1 | > 100 µM | > 100 µM | > 100 µM | > 100 µM | 20.5 µM | 48 µM | 20.7 µM | 45.8 µM | > 100 µM | > 100 µM | 33.5 µM | > 100 µM | 61.7 µM | > 100 µM | 29.7 µM | 70.4 µM | > 100 µM | > 100 µM | 43.8 µM | > 100 µM
CC(=O)OCC1OC(n2c(-c3ccc(Cl)cc3)ccc(C#N)c2=S)C(OC(C)=O)C(OC(C)=O)C1OC(C)=O (stereo not drawn) |  | > 100 µM |  | > 100 µM | 10.2 µM and 42.9 µM | 47.1 µM and > 100 µM | 16.4 µM and 47.9 µM | 44.9 µM and > 100 µM |  | > 100 µM | > 100 µM | > 100 µM |  | > 100 µM |  | 36.3 µM and 74.5 µM | > 100 µM and 40.2 µM | > 100 µM |  | > 100 µM
CC(C(=O)c1ccccc1)C(c1ccccc1)N1CCOCC1 (stereo not drawn) |  | > 100 µM |  | > 100 µM |  | > 100 µM |  | > 100 µM |  | > 100 µM |  | > 100 µM |  | > 100 µM |  | > 100 µM |  | > 100 µM |  | > 100 µM
CCCN(CCCC(NC(C)=O)C(=O)NCc1ccccc1)C(=O)N(CCCl)N=O (stereo not drawn) |  | 28 µM |  | 49.7 µM |  | > 100 µM |  | 63.1 µM |  | 76.8 µM |  | 62.4 µM |  | 23.6 µM |  | 35 µM |  | 17.5 µM |  | > 100 µM
CC(C)CCC(=O)c1ccoc1 |  | > 100 µM |  | > 100 µM |  | > 100 µM |  | > 100 µM |  | > 100 µM |  | > 100 µM |  | > 100 µM |  | > 100 µM |  | > 100 µM |  | > 100 µM
O=C(CO[N+](=O)[O-])Nc1ccc(C(=O)/C=C/c2ccc(Cl)cc2)cc1 | 4.68 µM | 69.4 µM | 1.44 µM | 2.88 µM | 5.39 µM | 21.2 µM | 10.1 µM | 65.9 µM | 2.73 µM | 16.5 µM | 11.8 µM | 54.5 µM | 12.7 µM | 54.9 µM | 4.82 µM | 17.8 µM | 3.65 µM | > 100 µM | 3.41 µM | 13.5 µM
CCOC(=O)N1CCN(c2nc(Nc3cc(C)[nH]n3)c3ccccc3n2)CC1 | 15.5 µM | 42.7 µM | 2.1 µM | 45.2 µM | 4.97 µM | 81.6 µM | 2.62 µM | 34.3 µM | 10.1 µM | 56.2 µM | 0.97 µM | 17.8 µM | 4.42 µM | 26.4 µM | 1.11 µM | 5.01 µM | 0.446 µM | 20.2 µM | 3.89 µM | 40 µM
